From PMC5615050 (Scientific Reports, 2017)

Biological target: Bac-NA^H274Y H1N1 (Influenza A virus, UniProt P03470, H259Y)
Assay: biochemical

SMILES	IC50 [µM]
CC1OC(OC2CC(O)C3(CO)C4C(O)CC5(C)C(C6COC(O)C6)CCC5(O)C4CCC3(O)C2)C(O)C(O)C1O (stereo not drawn) [BPR1P0003S0]	> 40
CC12CCC(O)CC1CCC1C2CC(O)C2(C)C(C3=CC(=O)OC3)CCC12O (stereo not drawn) [BPR1P0007S0]	> 40
CC12CCC(O)CC1CCC1C2CCC2(C)C(C3=CC(=O)OC3)CCC12O (stereo not drawn) [BPR1P0008S0]	> 40
